In patent publication US11286268B1, “EIF4E-inhibiting compounds and methods” (EFFECTOR THERAPEUTICS, INC., priority 2019, dated 2022):
Read-outs that look alike come from different tables or passages of the source.

Molecular target: recombinant eIF4E (Homo sapiens (Human), UniProt P06730)
Experiment: Fluorescence polarization competition assay for eIF4E binding potency
Outline: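 Competition of test compound against 20 nM EDA-m^7GDP-ATTO-550 for 75 nM recombinant eIF4E, pre-incubated 5 min, in 20 mM Tris pH 7.5, 100 mM NaCl, 1 mM DTT, 0.02% Tween-20, 1% DMSO. Equilibrated 30 min at room temperature, dark; fluorescence polarization read. IC50 from 8-point, 3-fold dilution series.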

[1] = fluorescence polarization competition, 75 nM recombinant eIF4E, 20 nM EDA-m7GDP-ATTO-550, IC50 class, read-out: elF4E FP
[2] = inhibition of eIF4E/EDA-m7GDP-ATTO-550 binding by 50%, Table 4B calculated values, read-out: IC50
[3] = inhibition of eIF4E/EDA-m7GDP-ATTO-550 binding, calculated IC50 values, Table 4B, read-out: IC50

Sequence of recombinant eIF4E (P06730 whole entry): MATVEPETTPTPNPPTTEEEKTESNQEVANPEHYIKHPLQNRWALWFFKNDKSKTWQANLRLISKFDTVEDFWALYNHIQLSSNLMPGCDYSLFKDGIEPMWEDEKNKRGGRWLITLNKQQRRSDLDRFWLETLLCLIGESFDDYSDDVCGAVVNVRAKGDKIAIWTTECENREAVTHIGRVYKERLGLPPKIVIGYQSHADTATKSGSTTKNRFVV

Compound | IC50 [1] [nM] | IC50 [2] [nM] | IC50 [3] [nM]
Cc1nc2cc(C(F)F)c(OC(F)F)c(C#N)c2c(=O)n1CCOc1ccc(Cl)cc1-c1ccnc2c(C(=O)O)csc12 [compound 548] | < 50 | 47.2 | 
Cc1nc2cnc(N(C)C3CCN([C@@H]4C[C@H]4C(F)(F)F)CC3)c(C#N)c2c(=O)n1CC#Cc1ccc(Cl)cc1-c1ccnc2c(C(=O)O)csc12 [compound 1175] | < 50 | 22.1 | 
Cc1nc2cnc(N3CCN(C4CC4)CC3)c(C#N)c2c(=O)n1CC#Cc1ccc(Cl)cc1-c1ccnc2c(C(=O)O)csc12 [compound 1162] | < 50 | 21.6 | 
Cc1cc(S(=O)(=O)NC(=O)c2csc3c(-c4cc(Cl)ccc4C#CCn4c(C)nc5cnc(N(C)C6CCN(CC(C)(F)F)CC6)c(C#N)c5c4=O)ccnc23)ccn1 [compound 1682] |  |  | 15.1
Cc1cc(-c2cc(Cl)ccc2OCCn2c(C)nc3c(C)nc(CN(C)C)c(C#N)c3c2=O)c2scc(C(=O)O)c2n1 [compound 1621] |  |  | 72.1
Cc1nc2cncc(Br)c2c(=O)n1CCOc1ccc(Cl)cc1-c1cccc(C(=O)O)c1 [compound 1999] |  |  | 482
Cc1nc2cncc(C#N)c2c(=O)n1C/C=C/c1ccc(Cl)cc1-c1cccc(C(=O)O)c1 [compound 44] | 50 to 1000 | 73.1 | 
Cc1nc2cc(C(F)(F)F)cc(C#N)c2c(=O)n1CCOc1ccnnc1-c1ccnc2c(C(=O)O)csc12 [compound 453] | > 1000 | 2320 | 
CCN(c1ncc2nc(C)n(CC#Cc3ccc(Cl)cc3-c3ccnc4c(C(=O)NS(=O)(=O)C(F)(F)F)csc34)c(=O)c2c1C#N)C1CCN(C2COC2)CC1 [compound 1744] |  |  | 11.5
Cc1nc2cc(F)c(S(C)(=O)=O)c(C#N)c2c(=O)n1CCOc1ccc(Cl)cc1-c1ccnc2c(C(=O)O)csc12 [compound 279] | < 50 | 17.8 | 
COCCN1CCN(c2c(C(F)(F)F)cc3nc(C)n(CCOc4ccc(Cl)cc4-c4ccnc5c(C(=O)O)csc45)c(=O)c3c2C#N)CC1 [compound 1243] | < 50 |  | 5.55
Cc1sc2c(-c3cc(Cl)ccc3OCCn3c(C)nc4cc(C(F)(F)F)c(N5CCN(C)CC5)cc4c3=O)ccnc2c1C(=O)O [compound 1210] | < 50 |  | 48.3
Cc1cc(-c2cc(Cl)ccc2OCCn2c(C)nc3cc(C(F)(F)F)c(N4CC(C)(O)C4)c(C#N)c3c2=O)c2scc(C(=O)O)c2n1 [compound 1055] | < 50 | 11.7 | 
Cc1nc2cnc(N(C)C3CCN(CCF)CC3)c(C#N)c2c(=O)n1CC#Cc1ccc(Cl)cc1-c1ccnc2c(C(=O)O)csc12 [compound 1653] |  |  | 26.5
Cc1nc2c(N3CCNCC(F)(F)C3)ncc(C#N)c2c(=O)n1CCOc1ccc(Cl)cc1-c1ccnc2c(C(=O)O)csc12 [compound 837] | < 50 | 13.4 | 
COc1c(Cl)cc(-c2cc(Cl)ccc2OCCn2cnc3cnc(C#N)cc3c2=O)cc1C(=O)O [compound 108] | > 1000 | 11200 | 
CCc1cc(-c2cc(Cl)ccc2OCCn2c(C)nc3cnc(CC)c(C#N)c3c2=O)c2scc(C(=O)O)c2n1 [compound 1062] | < 50 | 6.63 | 
Cc1nc2cc(F)c(C(F)F)c(C#N)c2c(=O)n1CCOc1ccc(Cl)cc1-c1ccnc2c(C(=O)O)csc12 [compound 230] | < 50 | 14.9 | 
Cc1nc2cc(C(F)(F)F)c(-c3ccncc3)c(C#N)c2c(=O)n1CCOc1ccc(Cl)cc1-c1cccc(C(=O)O)c1 [compound 386] | < 50 | 25.4 | 
Cc1cc(-c2cc(Cl)ccc2OCCn2c(C)nc3c(C)nc(-c4ccccc4C(F)(F)F)c(C#N)c3c2=O)c2scc(C(=O)O)c2n1 [compound 924] | < 50 | 14.3 | 

Compound | IC50 [1] [nM] | IC50 [2] [nM] | IC50 [3] [nM]
Cc1nc2cnc(Nc3cc(F)cc(F)c3)cc2c(=O)n1CCOc1ccc(Cl)cc1-c1cccc(C(=O)O)c1 [compound 2002] |  |  | 259
Cc1nc2cnc(N(C)C3CCN(CC(F)(F)F)CC3)c(C#N)c2c(=O)n1CC#Cc1ccc(Cl)cc1-c1ccnc2c(C(=O)NS(=O)(=O)c3ccnn3C)csc12 [compound 1668] |  |  | 5.67
Cc1cc(-c2cc(Cl)ccc2OCCn2c(C)nc3c(F)cc(C(F)F)c(C#N)c3c2=O)c2cccc(C(=O)O)c2n1 [compound 490] | 50 to 1000 |  | 
Cc1cc(-c2cc(Cl)ccc2OCCn2c(C)nc3cnc(C4(C)CC4)c(C#N)c3c2=O)c2scc(C(=O)O)c2n1 [compound 831] | < 50 | 12.3 | 
Cc1nc2ccc(S(=O)(=O)N(C)C)c(C#N)c2c(=O)n1CCOc1ccc(Cl)cc1-c1ccnc2c(C(=O)O)csc12 [compound 196] | < 50 | 25.7 | 
Cc1nc2ccc(CCN(C)C)c(C#N)c2c(=O)n1CCOc1ccc(Cl)cc1-c1ccc(C(F)(F)F)c2c(C(=O)O)csc12 [compound 578] | < 50 | 32 | 
Cc1cc(-c2cc(Cl)ccc2OCCn2c(C)nc3cc(C(F)F)c(CN4CCN(C)CC4)c(C#N)c3c2=O)c2scc(C(=O)O)c2n1 [compound 646] | < 50 | 41.4 | 
Cc1nc2ccccc2c(=O)n1CCOc1ccc(Cl)cc1-c1cccc(C(=O)O)c1 [compound 72] | > 1000 | 3100 | 
Cc1cc(-c2cc(Cl)ccc2OCCn2c(C)nc3cc(C(F)(F)F)c(N4CCNCC4)c(C#N)c3c2=O)c2sc(C)c(C(=O)O)c2n1 [compound 879] | < 50 | 7.31 | 
O=C(O)c1cccc(-c2cc(Cl)ccc2OCCc2ccnc3nc(Nc4ccccc4)[nH]c(=O)c23)c1 [compound 176] | < 50 | 41.5 | 
Cc1cc(-c2cc(Cl)ccc2OCCn2c(C)nc3c(C)ncc(C#N)c3c2=O)c2scc(C(=O)NS(C)(=O)=O)c2n1 [compound 731] | < 50 | 5.97 | 
Cc1nc2cc(C(F)(F)F)cc(S(C)(=O)=O)c2c(=O)n1CCOc1ccc(Cl)cc1-c1ccnc2c(C(=O)O)csc12 [compound 223] | 50 to 1000 | 950 | 
Cc1cc(-c2cc(Cl)ccc2OCCn2c(C)nc3c(C)ncc(C#N)c3c2=O)c2scc(C(=O)O)c2n1 [compound 673] | < 50 | 25.3 | 
O=C(O)c1cc2ccc1CCCCCc1nc3cc(C(F)(F)F)cc(Br)c3c(=O)n1CCOc1ccc(Cl)cc1-2 [compound 2013] |  |  | > 10000
Cc1ccc(N(C)c2c(Cl)cc3nc(C)n(CCOc4ccc(Cl)cc4-c4cc(C)nc5c(C(=O)O)csc45)c(=O)c3c2C#N)cn1 [compound 959] | < 50 | 14.8 | 
Cc1cc(-c2c(C(F)(F)F)cc3nc(C)n(CCOc4ccc(Cl)cc4-c4cc(C)nc5c(C(=O)O)csc45)c(=O)c3c2C#N)c(F)cn1 [compound 471] | < 50 | 28.8 | 
Cc1cc(-c2cc(Cl)ccc2OCCn2c(C)nc3cc(S(C)(=O)=O)c(N4CCN(C)CC4)cc3c2=O)c2scc(C(=O)O)c2n1 [compound 1209] | 50 to 1000 |  | 98
Cc1cc(-c2cc(Cl)ccc2OCCn2c(C)nc3cc(C(F)(F)F)c(-c4ccncc4C)nc3c2=O)c2scc(C(=O)O)c2n1 [compound 436] | < 50 | 7.17 | 
Cc1nc2cc(F)cc(C#N)c2c(=O)n1CCOc1ccc(Cl)cc1-c1ccnc2c(C(=O)O)csc12 [compound 1937] |  |  | 38.2
N#Cc1cccc2ncn(CCOc3ccc(Cl)cc3-c3cccc(C(=O)O)c3)c(=O)c12 [compound 73] | 50 to 1000 | 83.2 | 
